Assay results from patent US7321000B2, “Ophthalmic composition containing N-acetyl-cysteine for the treatment of dry-eye syndrome” (Farmigea S.p.A., priority 2001, dated 2008).

Assay: Stability studies: autoclaving, colorimetric determination of N-AC
Assay type: physicochemical
Conditions: 120° C., 20 min.; both in the presence and absence of benzalkonium chloride
Method: The formulations underwent autoclaving (120° C., 20 min.): as highlighted in the prior art, N-acetyl-cysteine is degraded by about 30% (both in the presence and absence of benzalkonium chloride). It is, however, possible to carry out sterilisation by filtering through a 0.2 μm membrane, as was performed in the aforesaid examples.
In order to evaluate the stability of N-AC in the vehicle, it is not possible to use the HPLC method or ultraviolet spectrophotometry. The following calorimetric method was thus employed (Raggi M. A., Cavrini V. and Di Pietra A. M., Colorimetric determination of acetylcysteine, penicillamine and mercaptopropionylglycine in pharmaceutical dosage forms, J. Pharm. Sci., 71, 1384-1386 (1982)).
0.163 g of acetylcysteine is dissolved in 500 ml of distilled H2O. By diluting in a proportion of 1:5, the required concentration is obtained.
Increasing volumes of this solution (1-5 ml) are placed in a 25 ml flask and then the following are added in succession:
After 20 min the absorbance is measured at 515 nm by using as reference a control prepared at the same time as the sample.
The procedure described above was also applied to carry out the calibration of N-AC in the presence of DEAE-dextrane. For these samples, the measurement was carried out by using as reference a control containing the polymer and also a control without DEAE-dextrane.

degradation of N-acetyl-cysteine on autoclaving: about 30%
Compound: CC(=O)N[C@@H](CS)C(=O)O [N-acetyl-cysteine]
